# In patent US20260364185A1, “Estrogen Receptor Modulator and Use Thereof” (JIANGSU VCARE PHARMATECH CO., LTD., priority 2023, published 2026):
# Test system: MCF-7 tumor
# Assay: In vivo tumor inhibitory activity test (MCF-7 tumor, estradiol-supplemented mice)
# Settings: 5 mg/kg/d (I.V.), Day 19, relative tumor volume inhibition rate, P < 0.05
# Protocol: Experimental Example 3: In Vivo Tumor Inhibitory Activity Test
# MCF-7 cell culture (culture conditions: MEM medium+20% FBS+1% essential amino acids ++1 mg/100 ml insulin, 37° C., 5% CO2). The cells subcultured into the logarithmic growth phase were collected and transferred into a centrifuge tube, and centrifuged at 800 rpm for 5 min. On the day of inoculation, the cell density was adjusted to 3*10^7 cells/mL. […]
# Grouped administration: When the average tumor volume reached 80-150 mm^3, the animals were randomly grouped according to tumor volume, with the coefficient of variation (CV) of tumor volumes not exceeding ⅓ of the mean volume. […] The body weight of the mice was measured before administration, and the administration was based on the body weight on that day. Experimental observation and data collection: After cell inoculation, the effect of the tumor on the normal behavior of the animals was routinely monitored every week. […] After the start of administration, the mice were weighed and dosed daily, and tumor volume was measured twice a week. The tumor volume was calculated as follows: tumor volume (mm^3)=0.52×tumor long diameter (mm) x tumor short diameter (mm) 2. […]
# [formula] […] All data were analyzed using GraphPad Prism 6.0.
row,Structure (SMILES),TGI (Day 19) [%]
1,"Cn1nc(N2CCC(=O)NC2=O)c2cc(F)c(C3(O)CCN(C[C@@H]4CCCC[C@H]4CN4CCN(c5ccc([C@@H]6c7ccc(O)cc7CC[C@@H]6c6ccccc6)cc5)CC4)CC3)cc21 [VI-23, 1-(5-fluoro-6-(4-hydroxy-1-(((1R, 2R)-2-((4-(4-((1R, 2S)-6-hydroxy-2-phenyl-1,2,3,4-tetrahydronaphthalen-1-yl)phenyl)piperazin-1-yl)methyl)cyclohexyl)methyl)piperidin-4-yl)-1-methyl-1H-indazol-3-yl)dihydropyrimidine-2,4 (1H, 3H)-dione]",77.9

# Test system: MCF7 cells
# Assay: MCF7 cell activity test (CCK8 proliferation inhibition)
# Assay type: cell-based
# Settings: Homo sapiens, MCF7, 144 h, 6 days incubation
# Protocol: Experimental Example 1: MCF7 cell activity test
# Cell culture: MCF7 cells (culture conditions: MEM medium+20% FBS+1% essential amino acids++1 mg/100 ml insulin, 37° C., 5% CO2). Plating: The cells subcultured into the logarithmic growth phase were collected and transferred into a centrifuge tube, and centrifuged at 800 rpm for 5 min. The cells were resuspended in complete medium and counted. The cells were diluted and adjusted to a final concentration of 30,000 cells/mL. The cells were then seeded into a 96-well plate with 100 μL per well and incubated in an incubator overnight. Administration: Each group of drug solutions was added into the 96-well plate, 100 μL per well, n=3 for each drug concentration. Meanwhile, negative wells (n=6) and blank wells (n=3) were set up. The 96-well plate was incubated in the incubator for further 6 days. CCK8 reagent was added to the 96-well plate, 20 μL per well, and then the plate was placed in the incubator for further 4 h. The absorbance of the solution was measured at a wavelength of 450 nm using an enzyme reader. The proliferation inhibition rate was calculated and the half inhibitory concentration IC50 value was calculated using Graphpad Prism 6.0 software.
row,Structure (SMILES),IC50 [µM]
1,Cn1nc(N2CCC(=O)NC2=O)c2cc(F)c(N3CCN(C[C@@H]4CCCC[C@H]4CN4CCN(c5ccc([C@@H]6c7ccc(O)cc7CC[C@@H]6c6ccccc6)cc5)CC4)CC3)cc21 [IV-5],< 0.025
2,O=C1CCC(n2ncc3cc(N4CCN(C[C@@H]5CCCC[C@H]5CN5CCN(c6ccc([C@@H]7c8ccc(O)cc8CC[C@@H]7c7ccccc7)cc6)CC5)CC4)c(F)cc32)C(=O)N1 (stereo partly drawn) [VI-5],< 0.05
3,"Cn1nc(C2CCC(=O)NC2=O)c2ccc(N3CCN(C[C@@H]4CCCC[C@H]4CN4CCN(c5ccc([C@@H]6c7ccc(O)cc7CC[C@@H]6c6ccccc6)cc5)CC4)CC3)cc21 (stereo partly drawn) [IV-3, 3-(6-(4-(((1R,2R)-2-((4-(4-((1R,2S)-6-hydroxy-2-phenyl-1,2,3,4-tetrahydronaphthalen-1-yl)phenyl)piperazin-1-yl)methyl)cyclohexyl)methyl)piperazin-1-yl)-1-methyl-1H-indazol-3-yl)piperidine-2,6-dione]",< 0.025
4,O=C1CCC(n2ncc3cc(N4CCN(C[C@@H]5CCCC[C@H]5CN5CCN(c6ccc([C@@H]7c8ccc(O)cc8CC[C@@H]7c7ccccc7)cc6)CC5)CC4)ccc32)C(=O)N1 (stereo partly drawn) [VI-6],< 0.1
5,"Cn1nc(C2CCC(=O)NC2=O)c2cc(F)c(C3CCN(C[C@H]4CCCC[C@@H]4CN4CCN(c5ccc([C@@H]6c7ccc(O)cc7CC[C@@H]6c6ccccc6)cc5)CC4)CC3)cc21 (stereo partly drawn) [IV-10, 3-(5-fluoro-6-(1-(((1S,2S)-2-((4-(4-((1R,2S)-6-hydroxy-2-phenyl-1,2,3,4-tetrahydronaphthalen-1-yl)phenyl)piperazin-1-yl)methyl)cyclohexyl)methyl)piperidin-4-yl)-1-methyl-1H-indazol-3-yl)piperidin-2,6-dione]",< 0.05
6,Cn1nc(N2CCC(=O)NC2=O)c2cc(F)c(C3CC4CCC(C3)N4C[C@@H]3CCCC[C@H]3CN3CCN(c4ccc([C@@H]5c6ccc(O)cc6CC[C@@H]5c5ccccc5)cc4)CC3)cc21 (stereo partly drawn) [VI-17],< 0.025

# Results, then the compound that gave them:
row,IC50 [µM],Structure (SMILES)
1,< 0.025,"Cn1nc(N2CCC(=O)NC2=O)c2cc(F)c(C3(O)CCN(C[C@@H]4CCCC[C@H]4CN4CCN(c5ccc([C@@H]6c7ccc(O)cc7CC[C@@H]6c6ccccc6)cc5)CC4)CC3)cc21 [VI-23, 1-(5-fluoro-6-(4-hydroxy-1-(((1R, 2R)-2-((4-(4-((1R, 2S)-6-hydroxy-2-phenyl-1,2,3,4-tetrahydronaphthalen-1-yl)phenyl)piperazin-1-yl)methyl)cyclohexyl)methyl)piperidin-4-yl)-1-methyl-1H-indazol-3-yl)dihydropyrimidine-2,4 (1H, 3H)-dione]"
2,< 0.1,Cn1nc(N2CCC(=O)NC2=O)c2cc(F)c(C3CCC(N(C[C@@H]4CCCC[C@H]4CN4CCN(c5ccc([C@@H]6c7ccc(O)cc7CC[C@@H]6c6ccccc6)cc5)CC4)C4CC4)CC3)cc21 (stereo partly drawn) [VI-25]
3,< 0.05,C[C@@H]1CC(c2cc3c(cc2F)c(N2CCC(=O)NC2=O)nn3C)C[C@H](C)N1C[C@@H]1CCCC[C@H]1CN1CCN(c2ccc([C@@H]3c4ccc(O)cc4CC[C@@H]3c3ccccc3)cc2)CC1 (stereo partly drawn) [VI-22]
4,< 0.025,Cn1nc(N2CCC(=O)NC2=O)c2cc(F)c(C3CCC(N4CCN(C[C@@H]5CCCC[C@H]5CN5CCN(c6ccc([C@@H]7c8ccc(O)cc8CC[C@@H]7c7ccccc7)cc6)CC5)CC4)CC3)cc21 (stereo partly drawn) [VI-24]
5,< 0.025,C[C@@H]1CC(c2cc3c(cc2F)c(N2CCC(=O)NC2=O)nn3C)CCN1C[C@@H]1CCCC[C@H]1CN1CCN(c2ccc([C@@H]3c4ccc(O)cc4CC[C@@H]3c3ccccc3)cc2)CC1 (stereo partly drawn) [VI-20]
6,< 0.05,"Cn1c(=O)n(C2CCC(=O)NC2=O)c2cccc(N3CCN(C[C@@H]4CCCC[C@H]4CN4CCN(c5ccc([C@@H]6c7ccc(O)cc7CC[C@@H]6c6ccccc6)cc5)CC4)CC3)c21 (stereo partly drawn) [VII-1, 3-(4-(4-(((1R,2R)-2-((4-(4-((1R,2S)-6-hydroxy-2-phenyl-1,2,3,4-tetrahydronaphthalen-1-yl)phenyl)piperazin-1-yl)methyl)cyclohexyl)methyl)piperazin-1-yl)-3-methyl-2-oxo-2,3-dihydro-1H-benzo[d]imidazol-1-yl)piperidine-2,6-dione]"
7,< 0.05,Cn1nc(N2CCC(=O)NC2=O)c2cc(F)c(N3CC4(CN(C[C@@H]5CCCC[C@H]5CN5CCN(c6ccc([C@@H]7c8ccc(O)cc8CC[C@@H]7c7ccccc7)cc6)CC5)C4)C3)cc21 [VI-26]
8,< 0.05,Cn1nc(N2CCC(=O)NC2=O)c2cc(F)c(C3CCN(C4CCN(C[C@@H]5CCCC[C@H]5CN5CCN(c6ccc([C@@H]7c8ccc(O)cc8CC[C@@H]7c7ccccc7)cc6)CC5)CC4)CC3)cc21 [VI-19]
